The source of these data is US20100222284A1, “COMPOSITION FOR INHIBITING THE ONSET OF ARTERIOSCLEROSIS AND INHIBITION METHOD” (priority 2004, published 2010).

In one data set the test system is CLA-1 promoter. Briefly: CLA-1 promoter luciferase reporter gene activity in HepG2 cells. Format: cell-based, human. Conditions: HepG2, 24 hours; 2.8-22.4 mM D-glucose or 22.4 mM D-psicose. The method, then:
Further, by integrating a 1200 by promoter region of the CLA-1 gene into a luciferase reporter gene, introducing the gene into a cell and measuring the luciferase activity, the transcriptional activity of CLA-1 was determined.
6. The transcriptional activity of CLA-1 was also examined. The luciferase reporter gene containing the CLA-1 promoter was introduced into HepG2 cells and the resulting HepG2 cells were cultured with 2.8 mM (lane 1), 5.6 mM (lane 2), 11.2 mM (lane 3), 22.4 mM (lane 4) D-glucose or 22.4 mM D-psicose for 24 hours and the luciferase activity was measured. A high concentration of D-glucose inhibited the activity of the CLA-1 promoter.
A general note: Reporter assays use an easily measured gene product as a stand-in for the process of interest.

The nature of data set [1]: Basic safety tests (mutagenicity, biodegradability, oral acute toxicity, primary skin irritation, primary eye irritation). Conditions: biodegradability and three acute toxicity tests performed by a designated organization. From the text: In the development of drugs, quasi drugs, foods and the like, the most important and the biggest hurdle is the verification of safety of a rare sugar as a novel substance. A mutagenicity test, a biodegradability test and three types of acute toxicity tests (an oral acute toxicity test, a primary skin irritation test and a primary eye irritation test) are defined as the most basic safety tests. A rare sugar is a monosaccharide that exists in nature even in a small amount, therefore, it can be predicted that it will be safe. However, it is necessary to perform verification precisely. We asked the designated organization to perform the basic safety tests for three types of rare sugars, D-psicose, D-allose and allitol among rare sugars.

For `O=C[C@H](O)[C@@H](O)[C@H](O)[C@H](O)CO` [D-glucose, reference compound], the “activity of the CLA-1 promoter (luciferase activity)” value in the data set on CLA-1 promoter is “inhibited”.
With `O=C(CO)[C@H](O)[C@H](O)[C@H](O)CO` [D-psicose], the “activity of the CLA-1 promoter (luciferase activity)” value in the data set with CLA-1 promoter is on record as “did not affect”. Further, the basic safety tests entry in data set [1] is listed as “there are not any problems in the safety”.
As for `O=C[C@H](O)[C@H](O)[C@H](O)[C@H](O)CO` [D-allose], the basic safety tests entry in data set [1] is given as “there are not any problems in the safety”.
The same measure, in the same setting: in the case of `OC[C@@H](O)[C@@H](O)[C@@H](O)[C@@H](O)CO` [allitol] it was “there are not any problems in the safety”.
